The source of these data is publication PMC10720383, “Acetylcholinesterase Inhibition in Rats and Humans Following Acute Fenitrothion Exposure Predicted by Physiologically Based Kinetic Modeling-Facilitated Quantitative In Vitro to In Vivo Extrapolation” (Environmental Science & Technology, 2023).

SMILES strings stand for the structures. Like-named read-outs stand apart in the source and are kept apart here.

Series [1] addresses T1, PON1 (Homo sapiens, UniProt P27169).
T1 construct: gender-mixed liver microsomes or plasma from rats and humans; tissue BioIVT (West Sussex, UK); host or cells: human plasma pooled from 25 donors, mixed gender
Kind of series: in vitro. The format is in vitro ADME. Particulars: both sexes, pH 7.4, gender-mixed. As to the method:
(§1) In vitro incubations were performed to obtain kinetic parameters for the CYP450s-catalyzed conversion of FNT to FNO and MNP using gender-mixed rat and human liver microsomes. For the PON1-dominated detoxification of FNO to MNP, in vitro incubations were conducted with gender-mixed liver microsomes or plasma from rats and humans. Sample extraction with diisopropyl ether was performed before UPLC-PDA analysis. More details on in vitro incubations, sample extraction, UPLC-PDA analysis, and calculation of kinetic parameters are provided in the Supporting Information. […]
(§2) All incubations were performed in triplicate.
(§3) In vitro incubations for metabolic conversions of FNO
(§4) Incubations with liver microsomes and plasma were performed to obtain kinetic parameters for PON1-mediated detoxification of FNO to MNP based on a modified method (Zhao et al. 2021). Incubation conditions that were suitable for linearity with respect to time and microsomal protein or plasma protein concentration were defined (data not shown). The final incubation mixtures with a total volume of 200 µL contained 50 mM Tris-HCl (pH 7.4), 2 mM CaCl2 as PON1 activity simulator, and FNO at final concentrations ranging from 25 to 5000 µM (added from 100 times concentrated stock solutions in acetonitrile). Controls differed from test incubations by the absence of liver microsomes or plasma, which was replaced with Tris-HCl. After 1-min pre-incubation in a 37°C water bath, 2 µL rat or 10 µL human liver microsomes (final concentration 0.2 and 1 mg microsomal protein/mL for rat and human samples, respectively) was added to initiate the reaction. For the plasma incubations, 4 µL of rat plasma or 10 µL human plasma (final concentration 1.2 and 3.3 mg plasma protein/mL for rat and human samples, respectively) was used. Reactions were terminated after incubating 10 min for rat samples or 20 min for human samples by adding 20 µL ice-cold HClO4 (10%, v/v), and samples were kept on ice until further extraction. All incubations were performed in triplicate.
(§5) DIPE extraction of FNT and its metabolites (Zhao et al. 2019; Wang et al. 2022) was performed before UPLC analysis. […]
(§6) Finally, the obtained residue was redissolved in 100 μL methanol, and subsequently analyzed with […]
(§7) The quantification of FNT, FNO and MNP was conducted using a Shimadzu Nexera X2 liquid chromatography system (LC-30AD, Kyoto, Japan), connected with a photodiode array detector (SPD-M30A, Shimadzu, Kyoto, Japan). […]
(§8) temperature at 10°C during analysis. […] Quantification of FNT and FNO was performed by integrating peak areas at 269 nm and for MNP at 315 nm using calibration curves (r2 > 0.99) prepared with commercial standards. The limit of quantification was 0.1 µM for FNT, FNO and MNP when using an injection volume of 20 µL. […]

The target of series [2] is T2, PON1 (Rattus norvegicus, UniProt P55159).
T2 construct: gender-mixed liver microsomes or plasma from rats and humans; tissue Corning (male) and Sigma-Aldrich (female), pooled; host or cells: Sprague-Dawley rat liver microsomes, gender-mixed
Briefly: in vitro. The series is classed as in vitro ADME. Particulars: both sexes, Sprague-Dawley, pH 7.4, gender-mixed. As to the method: as §1, §2, §3, §4, §5, §6, §7, §8

In a further series the test system is erythrocyte AChE. To be noted: human, highest dose tested, cited from earlier work.

T2 sequence (P55159 whole entry): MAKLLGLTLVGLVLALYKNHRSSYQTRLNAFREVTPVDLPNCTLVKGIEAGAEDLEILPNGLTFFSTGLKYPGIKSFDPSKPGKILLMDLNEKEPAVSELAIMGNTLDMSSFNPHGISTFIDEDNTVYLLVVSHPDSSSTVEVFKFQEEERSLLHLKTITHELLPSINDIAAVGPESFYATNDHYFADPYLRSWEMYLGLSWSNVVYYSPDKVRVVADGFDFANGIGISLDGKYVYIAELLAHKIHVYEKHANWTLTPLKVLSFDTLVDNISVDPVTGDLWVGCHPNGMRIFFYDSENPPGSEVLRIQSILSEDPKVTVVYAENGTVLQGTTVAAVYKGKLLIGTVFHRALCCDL
T1 sequence (P27169 whole entry): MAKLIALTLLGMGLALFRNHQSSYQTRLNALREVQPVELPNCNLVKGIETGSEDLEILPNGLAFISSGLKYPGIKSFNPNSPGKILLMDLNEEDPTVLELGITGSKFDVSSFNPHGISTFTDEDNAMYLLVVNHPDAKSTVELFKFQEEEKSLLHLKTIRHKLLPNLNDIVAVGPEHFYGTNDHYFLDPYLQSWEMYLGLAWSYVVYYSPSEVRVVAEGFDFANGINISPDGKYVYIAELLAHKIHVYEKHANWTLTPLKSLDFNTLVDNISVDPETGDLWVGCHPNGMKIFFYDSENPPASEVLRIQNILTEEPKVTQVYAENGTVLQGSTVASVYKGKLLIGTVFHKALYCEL

Usually Km stands for the concentration of substrate that gives half-maximal velocity. Turning to `COP(=O)(OC)Oc1ccc([N+](=O)[O-])c(C)c1` [FNO, fenitrooxon], the Km stood at 12.6 mM on PON1 [1] (human liver microsomes, read-out: Km, FNO to MNP (PON1-catalyzed), liver); 5.49 mM at PON1 [1] (human plasma, read-out: Km, FNO to MNP (PON1-catalyzed), plasma); 4.53 mM at PON1 [2] (rat liver microsomes, read-out: Km, FNO to MNP (PON1-catalyzed), liver); 4.08 mM at PON1 [2] (rat plasma, read-out: Km, FNO to MNP (PON1-catalyzed), plasma).
Turning to `COP(=S)(OC)Oc1ccc([N+](=O)[O-])c(C)c1` [FNT, O,O-dimethyl O-4-nitro-m-tolyl phosphorothioate], the “reported NOAEL” value was 0.33 mg/kg BW with erythrocyte AChE (APVMA, single dose human study) and 0.36 mg/kg BW in the series with erythrocyte AChE (JMPR, 4 day study in human volunteers).
